{
  "source": "patent US4201784A",
  "about": "“Substituted 2-[2'-(5\"-nitrofuryl-2\")vinyl-and 4'-(5\"-nitrofuryl-2\"-1,3-butadieryl]quinoline-4-carboxylic acid amides and salts thereof” (Institut Organicheskogo Sinteza Akademii Nauk Latviiskoi SSR, priority 1977, dated 1980)",
  "key": {"Kidneys": {"tested_on": "Kidneys", "test": "In vivo biosynthesis of DNA, RNA and protein in kidneys", "design": "species or system mice", "conditions": "24 hours, intraperitoneal 28 mg/kg", "protocol": "(§1) The influence of giniquine on biosynthetic processes in the in vivo tests was studied on common white mice of a mass of 25-35 g with Ehrlich ascitic tumor.\n(§2) The mice were divided into two groups. The animals in the first group were given a single injection of the preparation in differing doses, and the animals in the second group were treated with distilled water. Three series of experiments were conducted. In the first series of tests (16 mice) the preparation was injected in a dose of 100 mg/kg ([…] dose), and the animals were decapitated one hour after the injection; in the second test series (16 mice) the animals were slaughtered 3 hours after the injection with other conditions being the same. In the third test series (35 mice) the influence of giniquine on plastic metabolism in tumor cells and normal tissues was studied 24 hours after the injection of a 0.33% solution of the preparation in a dose of 28 mg/kg (therapeutical dose).\n(§3) Labeled precursors of nucleic acids and protein were injected intraperitoneally one hour before the slaughter of the animals (50 μc/100 g). Ascitic fluid, as well as liver and spleen, mucous membrane of small intestine, brain, kidneys and lungs were taken for analysis. 10% suspension was prepared from tumor cells, and 10% homogenates were prepared from tissues in a physiological solution.\n(§4) Tumor cells and tissue homogenates for precipitation of nucleic acids were treated with 57% perchloric acid (10:1). […] Radioactivity of DNA and RNA fractions was measured by means of a liquid scintillation counter. The quantity of DNA and RNA was determined by spectrophotometry: the quantity of DNA was determined with diphenylamine, and RNA- with orcin.\n(§5) To prepare protein hydrolysate, the suspension of tumoral cells and homogenates of normal tissues were treated with cool 10% trichloracetic acid (1:4), with subsequent centrifuging at 2000 g for ten minutes. […] The radioactivity was measured by means of a liquid scintillation counter. Protein was quantitatively determined by spectrophotometry using a microbiuret reaction."}, "Spleen": {"tested_on": "Spleen", "test": "In vivo biosynthesis of DNA, RNA and protein in spleen", "design": "species or system mice", "conditions": "for Incorporation of 2-^14 C-leucine in protein / Incorporation of 2-^14 C-thymidine in DNA: intraperitoneal 100 mg/kg", "protocol": "as §1, §2, §3\nTumor cells and tissue homogenates for precipitation of nucleic acids were treated with 57% perchloric acid (10:1). Acid-soluble fraction was removed by washing the precipitate twice with 5 ml of 5% perchloic acid with subsequent centrifuging at 2000 g. Nucleic acids were hydrolyzed by the Schneider method. Radioactivity of DNA and RNA fractions was measured by means of a liquid scintillation counter. The quantity of DNA and RNA was determined by spectrophotometry: the quantity of DNA was determined with diphenylamine, and RNA- with orcin.\nTo prepare protein hydrolysate, the suspension of tumoral cells and homogenates of normal tissues were treated with cool 10% trichloracetic acid (1:4), with subsequent centrifuging at 2000 g for ten minutes. The precipitate was washed twice with 5 ml of 10% trichloracetic acid. Lipoids were removed by a consecutive treatment of the precipitate with ethanol, saturated solution of sodium acetate, a mixture of ethanol and ether (3:1) and ether. To prepare protein hyhdrolysate, 4 ml of 0.3N KOH were added to the precipitate, and the mixture was placed into a thermostatic chamber at 37° C. for 60 minutes. The radioactivity was measured by means of a liquid scintillation counter. Protein was quantitatively determined by spectrophotometry using a microbiuret reaction."}, "[1]": {"test": "LD50 / toxicity, mice with 7-days Ehrlich ascitic tumor", "format": "in vivo", "conditions": "for LD50: mouse, in vivo", "from_the_text": "It should be noted that with a single intraperitoneal injection of the\nWith peroral administration, toxicity of giniquine is 4-5 times lower."}, "adenocarcinoma 755": {"tested_on": "adenocarcinoma 755", "test": "Antitumor activity, adenocarcinoma 755", "format": "in vivo, mice", "protocol": "(§6) Apart from the tests on Ehrlich ascitic tumor, giniquine was studied on twelve more inoculated tumors. Seven tumors (melanoma B16, sarcoma AK, large intestine carcinoma acatol-1, sarcoma 180, adenocarcinoma 755, Lewis lung carcinoma and sarcoma 37) were inoculated subcutaneously with 50 mg of tumoral cells per mouse. Four tumors (lymphatic leukemies L 5178, L 5178Y, L 1210 and P-388) were inoculated intraperitoneally with 10^6 cells per mouse. One tumor (La, hemocytoblastosis) was inoculated intraperitoneally by injecting 50 mg of cell suspension of spleen and liver of mice suffering La hemocytoblastosis, per mouse. Giniquine was injected intraperitoneally five times for seven days: 1,2,3,4,7 days or 3,4,5,6,7 days after the implantation of tumor. The rate of deceleration of the tumor growth was established 14 days after the ultimate injection of giniquine; life of test animals was recorded for 60 days."}, "[2]": {"tested_on": "lymphatic leukemia L-1210", "test": "Antitumor activity, lymphatic leukemia L-1210", "format": "in vivo, mice", "protocol": "as §6"}, "[3]": {"tested_on": "lymphatic leukemia L 5178", "test": "Antitumor activity, life prolongation, lymphatic leukemia L 5178", "format": "in vivo, mice", "protocol": "as §6"}, "[4]": {"tested_on": "Mucous membrane of small intestine", "test": "In vivo biosynthesis of DNA, RNA and protein in mucous membrane of small intestine", "design": "species or system mice", "conditions": "24 hours, intraperitoneal 28 mg/kg", "protocol": "as §1, §2, §3, §4, §5"}, "sarcoma 180": {"tested_on": "sarcoma 180", "test": "Antitumor activity, sarcoma 180", "format": "in vivo, mice", "protocol": "as §6"}, "[5]": {"test": "Biological availability, ascites of mice with Ehrlich ascitic carcinoma", "format": "in vivo", "protocol": "The biological availability of giniquine was studied on common white male rats with a mass of 150-200 g and common white male mice with a mass of 25-30 g. The test began seven days after Ehrlich ascitic carcinoma was inoculated to the animals.\nGiniquine was injected intraperitoneally in 100 mg/kg doses, using distilled water as a solvent. The animals were slaughtered at preset time intervals (5,15,30 and 60 minutes) and a biological material (blood and liver for rats and ascites for mice) was taken for analysis. To separate ascitic fluid from the tumor cells, ascites was centrifuged at 2000 r.p.m. for 10 minutes. The precipitate was washed with a mixture of physiological solution and heparin and was again centrifuged under the same conditions, 20% homogenates in distilled water were prepared from ascitic cells.\nGiniquine was extracted from the biological material with chloroform.\nThe extraction procedure comprised the following stages: 0.1 ml of ethyl alcohol were added to 1 ml of tested sample and the solution was thoroughly mixed with 0.5 ml of a saturated potassium carbonate solution, then 4 ml of chloroform was added. Closed test tubes were vigorously shaken on a rocker for one hour. After the shaking, the samples were centrifuged at 5000 r.p.m. for ten minutes. The chloroform layer was used for analysis. Daylight was avoided.\nConcentration of the preparation in biological samples was determined by spectrophotometry at 400 nm using molar absorption factor (ε0.10^-3 =36.04).\nThe results were expressed in μg/ml of sample. Minimum sensitivity of the method was 1.1 μg/ml."}, "[6]": {"conditions": "24 hours, intraperitoneal 28 mg/kg"}, "[7]": {"conditions": "BDF1 female mice, intraperitoneal, days 1,2,3,4,7, optim. daily dose 6.0 mg/kg"}},
  "note": "Entries after “also recorded” stand apart in the source; their conditions may differ.",
  "data": [
    {"smiles": "CCN(CC)CCCC(C)NC(=O)c1cc(C=Cc2ccc([N+](=O)[O-])o2)nc2ccccc12", "note": "(stereo not drawn) [giniquine, 2-[2'-(5\"-nitrofuryl-2\")vinyl]quinoline-4-carboxylic acid (α-methyl-δ-diethylaminobutyl)amide triphosphate]", "values": [
      {"measurement": "Incorporation of specific precursors, DNA", "setting": "Kidneys", "result": "178.0 % of control"},
      {"measurement": "Incorporation of specific precursors, Protein", "setting": "Kidneys", "result": "105.0 % of control"},
      {"measurement": "Incorporation of specific precursors, RNA", "setting": "Kidneys", "result": "148.0 % of control"},
      {"measurement": "Incorporation of 2-^14 C-leucine in protein", "setting": "Spleen; 1 h", "result": "97.0 % of control"},
      {"measurement": "Incorporation of 2-^14 C-thymidine in DNA", "setting": "Spleen; 1 h", "result": "120.0 % of control"},
      {"measurement": "Incorporation of 2-^14 C-leucine in protein", "setting": "Spleen; 3 h", "result": "40.0 % of control"},
      {"measurement": "Incorporation of 2-^14 C-thymidine in DNA", "setting": "Spleen; 3 h", "result": "116.0 % of control"},
      {"measurement": "Incorporation of specific precursors, DNA", "setting": "Spleen; [6]", "result": "330.0 % of control"},
      {"measurement": "Incorporation of specific precursors, Protein", "setting": "Spleen; [6]", "result": "93.0 % of control"},
      {"measurement": "Incorporation of specific precursors, RNA", "setting": "Spleen; [6]", "result": "162.0 % of control"},
      {"measurement": "inhibition at 100 mg/kg", "setting": "Spleen; Mus musculus, 3 h, three hours, 100 mg/kg", "result": 60, "unit": "%"},
      {"measurement": "inhibition of biosynthesis of protein (in words)", "setting": "Spleen; one hour, 100 mg/kg", "result": "not observed or inappreciable"},
      {"measurement": "stimulation of biosynthesis of DNA", "setting": "Spleen; one hour, 100 mg/kg", "result": 20, "unit": "%"},
      {"measurement": "stimulation of biosynthesis of DNA", "setting": "Spleen; three hours, 100 mg/kg", "result": 16, "unit": "%"},
      {"measurement": "germicidal activity", "setting": "Germicidal activity", "result": "exhibits a germicidal activity; also recorded: combines in itself both actions"},
      {"measurement": "dependence of mice sensitivity on sex", "setting": "[1]; Table 4", "result": "does not depend on the sex of test mice"},
      {"measurement": "LD50", "setting": "[1]; ip, intraperitoneal, single injection, female", "result": 99, "unit": "mg/kg"},
      {"measurement": "LD50", "setting": "[1]; po, peroral, single administration, female", "result": 360, "unit": "mg/kg"},
      {"measurement": "LD50", "setting": "[1]; po, peroral, single administration, male", "result": 500, "unit": "mg/kg"},
      {"measurement": "toxicity, times lower", "setting": "[1]; peroral administration", "result": "4-5 times lower"},
      {"measurement": "toxicity, relative", "setting": "[1]; single intraperitoneal injection, 7 days after implantation of Ehrlich ascitic tumor", "result": "three times lower"},
      {"measurement": "Deceleration of tumor growth", "setting": "adenocarcinoma 755; [7]", "result": 28, "unit": "%"},
      {"measurement": "Max. prolongation of life", "setting": "adenocarcinoma 755; [7]", "result": 25, "unit": "%"},
      {"measurement": "antitumor effect (in words)", "setting": "adenocarcinoma 755; adenocarcinoma 755", "result": "slight antitumor effect"},
      {"measurement": "Max. life prolong.", "setting": "[2]; BDF1 male mice, intraperitoneal, days 1,2,3,4,7, optimum daily dose 6.0 mg/kg", "result": 15, "unit": "%"},
      {"measurement": "sensitivity (in words)", "setting": "[2]; L-1210", "result": "practically insensitive"},
      {"measurement": "Max. life prolong.", "setting": "[3]; common female mice, intraperitoneal, days 1,2,3,4,7, optimum daily dose 10.0 mg/kg", "result": 30, "unit": "%"},
      {"measurement": "antiblastic activity / sensitivity (in words)", "setting": "[3]; lymphatic leukemia L 5178", "result": "slight antitumor effect"},
      {"measurement": "Incorporation of specific precursors, DNA", "setting": "[4]", "result": "386.0 % of control"},
      {"measurement": "Incorporation of specific precursors, Protein", "setting": "[4]", "result": "122.0 % of control"},
      {"measurement": "Incorporation of specific precursors, RNA", "setting": "[4]", "result": "158.0 % of control"},
      {"measurement": "Deceleration of tumor growth", "setting": "sarcoma 180; common female mice, intraperitoneal, days 3,4,5,6,7, optim. daily dose 6.0 mg/kg", "result": 37, "unit": "%"},
      {"measurement": "Max. prolongation of life", "setting": "sarcoma 180; common female mice, intraperitoneal, days 3,4,5,6,7, optim. daily dose 10.0 mg/kg", "result": 23, "unit": "%"},
      {"measurement": "antitumor effect / sensitivity (in words)", "setting": "sarcoma 180; sarcoma 180", "result": "slight antitumor effect"},
      {"measurement": "concentration in tumoral cells versus ascitic fluid (in words)", "setting": "[5]; 60 minutes", "result": "also greater than that in ascitic fluid"},
      {"measurement": "time of maximum concentration in ascitic cells", "setting": "[5]; intraperitoneal 100 mg/kg", "result": "five minutes"},
      {"measurement": "concentration in ascitic cells versus ascitic fluid", "setting": "[5]; intraperitoneal 100 mg/kg, five minutes", "result": "four times greater"},
      {"measurement": "accumulation (in words)", "setting": "[5]; intraperitoneal injection", "result": "mainly accumulates in ascitic cells"},
      {"measurement": "Cmax at 5 min", "setting": "[5]; mouse, ascitic cells, ip, intraperitoneal 100 mg/kg, five minutes, read-out: maximum concentration in ascitic cells", "result": 40000, "unit": "ng/mL"},
      {"measurement": "concentration at 5 min", "setting": "[5]; mouse, ascitic fluid, ip, intraperitoneal 100 mg/kg, five minutes", "result": 10000, "unit": "ng/mL"}
    ]}
  ]
}
